Literature values in publication PMC9851200, “Multiparameter phenotypic screening for endogenous TFEB and TFE3 translocation identifies novel chemical series modulating lysosome function” (Autophagy, 2022).
Read-outs that look alike come from different tables or passages of the source.

Key:
Design in all cases: method as in original PKIS2 published data
[1] = target: T1, kinases (KINOMEscan panel) (Homo sapiens, UniProt O14920); conditions: cited from earlier work
T1 sequence (O14920 1-756): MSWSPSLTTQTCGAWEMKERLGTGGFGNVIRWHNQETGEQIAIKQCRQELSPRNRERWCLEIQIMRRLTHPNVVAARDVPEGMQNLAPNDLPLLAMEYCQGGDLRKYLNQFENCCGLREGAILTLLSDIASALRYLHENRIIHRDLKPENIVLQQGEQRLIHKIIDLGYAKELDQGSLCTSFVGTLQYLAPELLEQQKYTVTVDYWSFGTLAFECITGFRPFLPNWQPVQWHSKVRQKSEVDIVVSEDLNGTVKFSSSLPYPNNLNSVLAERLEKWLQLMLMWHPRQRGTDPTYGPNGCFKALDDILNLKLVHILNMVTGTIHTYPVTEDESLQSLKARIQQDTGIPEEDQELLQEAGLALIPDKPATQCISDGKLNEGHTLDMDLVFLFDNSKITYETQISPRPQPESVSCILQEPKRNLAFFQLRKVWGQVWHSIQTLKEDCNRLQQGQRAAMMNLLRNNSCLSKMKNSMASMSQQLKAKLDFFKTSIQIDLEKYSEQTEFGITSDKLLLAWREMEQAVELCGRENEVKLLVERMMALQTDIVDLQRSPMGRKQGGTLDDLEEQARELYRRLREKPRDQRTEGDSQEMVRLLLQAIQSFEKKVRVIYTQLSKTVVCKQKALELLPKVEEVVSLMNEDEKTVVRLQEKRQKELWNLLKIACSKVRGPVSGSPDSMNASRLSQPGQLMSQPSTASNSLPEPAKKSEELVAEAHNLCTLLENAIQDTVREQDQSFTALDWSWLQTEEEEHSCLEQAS

[2] = target: kinases (KINOMEscan panel) (Homo sapiens, UniProt O60331); conditions: PIP5K1C; Published KINOMEscan; ref original PKIS2 published data; cited from earlier work
[3] = target: kinases (KINOMEscan panel) (Homo sapiens, UniProt P08069); conditions: kinase IGF1R; Published KINOMEscan; ref original PKIS2 published data; cited from earlier work
[4] = target: kinases (KINOMEscan panel) (Homo sapiens, UniProt P22455); conditions: Published KINOMEscan; ref original PKIS2 published data; cited from earlier work
[5] = target: kinases (KINOMEscan panel) (Homo sapiens, UniProt P24941); conditions: CDK2; Published KINOMEscan; ref original PKIS2 published data; cited from earlier work
[6] = target: kinases (KINOMEscan panel) (Homo sapiens, UniProt P32298); conditions: kinase GRK4; Published KINOMEscan; ref original PKIS2 published data; cited from earlier work
[7] = target: kinases (KINOMEscan panel) (Homo sapiens, UniProt P43405); conditions: SYK; Published KINOMEscan; ref original PKIS2 published data; cited from earlier work
[8] = target: kinases (KINOMEscan panel) (Homo sapiens, UniProt Q8N5S9); conditions: CAMKK1; Published KINOMEscan; ref original PKIS2 published data; cited from earlier work
[9] = target: T2, kinases (KINOMEscan panel) (Homo sapiens, UniProt Q9BRS2); conditions: RIOK1; Published KINOMEscan; ref original PKIS2 published data; cited from earlier work
T2 sequence (Q9BRS2 1-568): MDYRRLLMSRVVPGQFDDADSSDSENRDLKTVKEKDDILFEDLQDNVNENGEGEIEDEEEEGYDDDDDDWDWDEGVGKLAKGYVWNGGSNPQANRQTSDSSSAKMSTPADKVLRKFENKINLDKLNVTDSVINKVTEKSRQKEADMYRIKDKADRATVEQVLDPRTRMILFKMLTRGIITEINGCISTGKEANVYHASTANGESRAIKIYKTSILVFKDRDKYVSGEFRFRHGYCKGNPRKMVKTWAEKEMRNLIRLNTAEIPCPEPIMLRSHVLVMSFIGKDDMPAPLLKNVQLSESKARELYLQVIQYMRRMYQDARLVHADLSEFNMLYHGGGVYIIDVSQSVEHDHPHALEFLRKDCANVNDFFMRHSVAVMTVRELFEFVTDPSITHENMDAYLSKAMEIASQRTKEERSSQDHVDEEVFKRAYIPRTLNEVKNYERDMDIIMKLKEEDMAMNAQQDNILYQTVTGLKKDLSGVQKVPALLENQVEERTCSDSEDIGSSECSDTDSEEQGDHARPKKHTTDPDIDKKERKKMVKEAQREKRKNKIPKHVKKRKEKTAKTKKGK

[10] = target: kinases (KINOMEscan panel) (Homo sapiens, UniProt Q9H2X6); conditions: Published KINOMEscan; ref original PKIS2 published data; cited from earlier work
[11] = tested on: kinases (KINOMEscan panel); conditions: Published KINOMEscan, ref original PKIS2 published data, cited from earlier work

Chain of kinases (KINOMEscan panel) (Homo sapiens, UniProt P08069) (P08069 31-1367): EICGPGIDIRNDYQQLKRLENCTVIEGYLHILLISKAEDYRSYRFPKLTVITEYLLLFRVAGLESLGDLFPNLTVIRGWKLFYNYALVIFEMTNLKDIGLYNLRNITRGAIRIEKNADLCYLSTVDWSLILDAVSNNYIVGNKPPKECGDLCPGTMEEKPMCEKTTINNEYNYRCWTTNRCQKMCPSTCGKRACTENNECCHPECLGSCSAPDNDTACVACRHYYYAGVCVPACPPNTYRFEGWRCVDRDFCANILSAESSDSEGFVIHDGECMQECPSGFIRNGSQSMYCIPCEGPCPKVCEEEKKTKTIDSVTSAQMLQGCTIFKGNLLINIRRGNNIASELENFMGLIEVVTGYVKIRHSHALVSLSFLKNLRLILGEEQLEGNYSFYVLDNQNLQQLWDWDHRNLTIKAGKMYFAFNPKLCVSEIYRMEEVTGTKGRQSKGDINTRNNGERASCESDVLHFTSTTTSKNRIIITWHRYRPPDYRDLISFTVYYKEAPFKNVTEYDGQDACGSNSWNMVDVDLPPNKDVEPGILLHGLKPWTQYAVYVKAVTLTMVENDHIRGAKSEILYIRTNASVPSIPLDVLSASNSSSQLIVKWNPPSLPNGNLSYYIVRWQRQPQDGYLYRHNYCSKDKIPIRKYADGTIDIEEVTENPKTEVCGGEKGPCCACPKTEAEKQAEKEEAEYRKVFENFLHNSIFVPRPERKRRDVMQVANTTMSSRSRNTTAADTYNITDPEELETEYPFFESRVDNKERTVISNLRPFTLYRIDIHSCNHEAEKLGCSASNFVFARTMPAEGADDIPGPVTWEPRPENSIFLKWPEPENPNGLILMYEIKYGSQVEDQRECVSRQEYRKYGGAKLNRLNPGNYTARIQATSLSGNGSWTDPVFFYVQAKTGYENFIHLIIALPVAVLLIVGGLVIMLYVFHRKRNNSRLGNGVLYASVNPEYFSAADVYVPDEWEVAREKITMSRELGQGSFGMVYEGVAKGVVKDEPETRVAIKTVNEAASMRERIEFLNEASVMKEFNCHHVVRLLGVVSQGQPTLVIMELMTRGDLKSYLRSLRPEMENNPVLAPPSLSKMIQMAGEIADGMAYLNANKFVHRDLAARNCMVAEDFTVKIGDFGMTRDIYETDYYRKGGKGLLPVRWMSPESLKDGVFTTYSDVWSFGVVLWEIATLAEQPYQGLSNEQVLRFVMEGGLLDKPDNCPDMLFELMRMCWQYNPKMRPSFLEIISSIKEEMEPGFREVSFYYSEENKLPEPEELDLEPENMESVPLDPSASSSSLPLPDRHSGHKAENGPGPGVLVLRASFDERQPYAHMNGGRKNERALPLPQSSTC
Chain of kinases (KINOMEscan panel) (Homo sapiens, UniProt O60331) (O60331 whole entry): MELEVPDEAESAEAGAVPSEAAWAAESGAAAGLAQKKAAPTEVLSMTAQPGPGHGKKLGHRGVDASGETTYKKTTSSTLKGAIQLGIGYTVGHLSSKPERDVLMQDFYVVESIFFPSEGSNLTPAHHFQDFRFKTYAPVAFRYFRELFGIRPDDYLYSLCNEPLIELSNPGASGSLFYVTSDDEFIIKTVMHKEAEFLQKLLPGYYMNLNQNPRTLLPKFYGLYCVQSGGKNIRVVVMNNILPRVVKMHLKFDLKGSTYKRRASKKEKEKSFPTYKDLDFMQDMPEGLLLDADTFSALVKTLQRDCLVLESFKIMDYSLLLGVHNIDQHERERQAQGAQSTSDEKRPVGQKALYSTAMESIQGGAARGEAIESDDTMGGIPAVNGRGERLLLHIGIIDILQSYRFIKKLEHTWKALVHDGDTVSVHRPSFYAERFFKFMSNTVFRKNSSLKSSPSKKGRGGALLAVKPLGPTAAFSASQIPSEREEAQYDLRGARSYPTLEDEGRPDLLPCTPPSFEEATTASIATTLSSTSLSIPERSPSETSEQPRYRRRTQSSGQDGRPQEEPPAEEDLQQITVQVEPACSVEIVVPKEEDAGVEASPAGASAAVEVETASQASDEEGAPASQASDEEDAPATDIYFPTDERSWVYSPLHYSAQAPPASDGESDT
Chain of kinases (KINOMEscan panel) (Homo sapiens, UniProt P32298) (P32298 whole entry): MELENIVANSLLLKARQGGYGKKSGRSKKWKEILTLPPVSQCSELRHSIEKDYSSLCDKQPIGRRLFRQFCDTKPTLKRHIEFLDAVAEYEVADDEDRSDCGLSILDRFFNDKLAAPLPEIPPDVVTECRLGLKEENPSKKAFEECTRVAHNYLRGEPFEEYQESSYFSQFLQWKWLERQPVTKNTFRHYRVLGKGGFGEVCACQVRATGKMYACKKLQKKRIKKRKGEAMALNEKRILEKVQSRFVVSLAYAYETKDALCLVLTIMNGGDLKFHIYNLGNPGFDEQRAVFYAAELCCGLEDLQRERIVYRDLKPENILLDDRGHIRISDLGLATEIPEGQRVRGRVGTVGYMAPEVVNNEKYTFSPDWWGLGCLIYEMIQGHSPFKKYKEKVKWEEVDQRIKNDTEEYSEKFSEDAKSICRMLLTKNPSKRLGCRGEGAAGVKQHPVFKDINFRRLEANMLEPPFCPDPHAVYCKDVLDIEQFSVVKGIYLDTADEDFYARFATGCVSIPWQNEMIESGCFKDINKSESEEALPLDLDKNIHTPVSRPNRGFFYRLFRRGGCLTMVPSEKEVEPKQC
Chain of kinases (KINOMEscan panel) (Homo sapiens, UniProt P22455) (P22455 22-802): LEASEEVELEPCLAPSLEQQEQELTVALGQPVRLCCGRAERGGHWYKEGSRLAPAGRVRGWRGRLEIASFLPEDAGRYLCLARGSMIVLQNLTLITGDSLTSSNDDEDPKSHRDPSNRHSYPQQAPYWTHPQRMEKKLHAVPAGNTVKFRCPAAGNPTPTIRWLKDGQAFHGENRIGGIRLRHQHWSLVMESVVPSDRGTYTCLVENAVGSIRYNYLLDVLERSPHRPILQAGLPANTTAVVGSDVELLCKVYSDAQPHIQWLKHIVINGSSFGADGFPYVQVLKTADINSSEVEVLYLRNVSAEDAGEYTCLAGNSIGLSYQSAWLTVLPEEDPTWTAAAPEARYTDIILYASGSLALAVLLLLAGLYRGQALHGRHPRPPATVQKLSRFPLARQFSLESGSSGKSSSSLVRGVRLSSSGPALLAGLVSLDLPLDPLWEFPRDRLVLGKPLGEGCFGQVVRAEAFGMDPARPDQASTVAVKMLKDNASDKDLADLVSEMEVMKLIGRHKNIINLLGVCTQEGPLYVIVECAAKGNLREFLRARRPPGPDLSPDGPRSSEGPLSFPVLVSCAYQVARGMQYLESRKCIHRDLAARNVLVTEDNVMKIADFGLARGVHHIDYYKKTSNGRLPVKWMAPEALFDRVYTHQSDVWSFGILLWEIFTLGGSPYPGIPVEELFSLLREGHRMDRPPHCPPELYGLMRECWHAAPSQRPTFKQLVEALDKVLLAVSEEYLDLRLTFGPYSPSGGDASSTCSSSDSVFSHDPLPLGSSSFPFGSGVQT
Chain of kinases (KINOMEscan panel) (Homo sapiens, UniProt Q8N5S9) (Q8N5S9 whole entry): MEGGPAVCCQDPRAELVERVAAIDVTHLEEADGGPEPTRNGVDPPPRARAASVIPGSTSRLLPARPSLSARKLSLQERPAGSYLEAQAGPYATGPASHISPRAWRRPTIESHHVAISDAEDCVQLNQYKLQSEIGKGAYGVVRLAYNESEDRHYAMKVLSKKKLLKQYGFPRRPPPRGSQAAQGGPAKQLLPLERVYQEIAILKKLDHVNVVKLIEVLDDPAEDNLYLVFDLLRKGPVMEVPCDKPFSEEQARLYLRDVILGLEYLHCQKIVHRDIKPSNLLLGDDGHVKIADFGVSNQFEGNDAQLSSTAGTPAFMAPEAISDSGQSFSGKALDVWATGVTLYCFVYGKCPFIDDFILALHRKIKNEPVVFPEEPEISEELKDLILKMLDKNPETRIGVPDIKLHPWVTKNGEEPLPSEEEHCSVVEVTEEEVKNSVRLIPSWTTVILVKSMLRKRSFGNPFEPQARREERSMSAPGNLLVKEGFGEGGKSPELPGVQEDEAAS
Chain of kinases (KINOMEscan panel) (Homo sapiens, UniProt Q9H2X6) (Q9H2X6 whole entry): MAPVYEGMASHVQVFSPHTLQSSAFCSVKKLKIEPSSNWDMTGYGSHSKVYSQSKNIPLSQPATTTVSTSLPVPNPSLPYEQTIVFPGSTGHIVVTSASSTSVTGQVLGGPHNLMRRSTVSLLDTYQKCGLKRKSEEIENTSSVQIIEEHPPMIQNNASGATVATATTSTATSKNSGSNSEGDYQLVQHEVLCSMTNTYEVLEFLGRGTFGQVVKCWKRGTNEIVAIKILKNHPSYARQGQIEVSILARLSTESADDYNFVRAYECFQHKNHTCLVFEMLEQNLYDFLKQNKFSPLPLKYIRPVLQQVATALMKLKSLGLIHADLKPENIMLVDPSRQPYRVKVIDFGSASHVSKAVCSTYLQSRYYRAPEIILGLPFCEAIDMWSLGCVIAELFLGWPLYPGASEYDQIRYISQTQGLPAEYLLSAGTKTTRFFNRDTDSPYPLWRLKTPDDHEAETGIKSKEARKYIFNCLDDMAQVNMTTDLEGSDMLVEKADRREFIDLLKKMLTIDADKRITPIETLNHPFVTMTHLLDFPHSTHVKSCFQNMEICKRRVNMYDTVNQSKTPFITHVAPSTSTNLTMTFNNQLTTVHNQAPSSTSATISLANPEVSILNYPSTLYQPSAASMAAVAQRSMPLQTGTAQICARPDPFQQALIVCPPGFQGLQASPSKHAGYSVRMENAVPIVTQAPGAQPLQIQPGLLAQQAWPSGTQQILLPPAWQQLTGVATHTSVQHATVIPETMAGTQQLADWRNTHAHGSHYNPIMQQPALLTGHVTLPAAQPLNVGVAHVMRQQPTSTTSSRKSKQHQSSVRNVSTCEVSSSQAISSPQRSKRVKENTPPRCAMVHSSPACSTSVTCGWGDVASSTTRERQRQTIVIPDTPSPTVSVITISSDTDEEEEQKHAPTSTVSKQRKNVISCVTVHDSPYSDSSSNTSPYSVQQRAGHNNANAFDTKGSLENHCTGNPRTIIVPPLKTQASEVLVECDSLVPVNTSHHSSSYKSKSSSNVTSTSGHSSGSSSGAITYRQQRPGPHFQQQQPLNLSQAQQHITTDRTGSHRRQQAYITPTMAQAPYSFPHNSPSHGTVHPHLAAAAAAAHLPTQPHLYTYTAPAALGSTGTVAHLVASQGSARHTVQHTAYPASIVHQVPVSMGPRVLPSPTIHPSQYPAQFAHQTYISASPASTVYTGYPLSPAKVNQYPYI

In the case of `Cc1cccc(-c2nc(Nc3ccncc3)c3ccccc3n2)n1` [NK215], the “KINOMEscan IKBKB/IKK-beta” value [1] is listed as 0, the “KINOMEscan PIP5K1C” value [2] is listed as 40 and the “KINOMEscan IGF1R” value [3] is listed as 0. The “KINOMEscan FGFR4” value [4] was 6, the “KINOMEscan CDK2” value [5] was 0 and the “KINOMEscan GRK4” value [6] was 0. For the same compound, the “KINOMEscan SYK” value [7] was 14, the “KINOMEscan CAMKK1” value [8] was 24 and the “KINOMEscan RIOK1” value [9] was 0. The “KINOMEscan HIPK2” value [10] was 0, the “KINOMEscan PRKAA2” value [11] was 0 and the “KINOMEscan PRKAA2” value ([11]; kinase PRKAA2) was 12.
